Data taken from patent US20240424112A1, “TETRAHYDROISOQUINOLINE COMPOUNDS THAT ARE KEAP1 BINDERS” (C4X Discovery Limited, priority 2021, published 2024).

Assays:
[1] = test system: NRF2 mediated gene NAD(P)H:quinone acceptor oxidoreductase 1 (NQO1) mRNA in BEAS-2B cells; assay: Beas2B NQO1 mRNA cell based assay; settings: Homo sapiens, 24 h, vs vehicle (0.1% DMSO), read-out: EC50 (increase in NQO1 mRNA)
Protocol: Beas2B NQO1 mRNA Cell Based Assay
The up-regulation of the NRF2 mediated gene NAD(P)H:quinone acceptor oxidoreductase 1 (NQO1) was measured using the following assay method: BEAS-2B cells (ATCC CRL-9609) were plated in 96-well clear plates at 20,000 cells/well in 75 μL of cell culture media and incubated overnight (37° C., 5% CO2). On day 2, 25 μL of compound or controls were added to the cells for 24 h. On day 3, the medium was aspirated from the plate and the Cells-to-CT™ 1-Step TaqMan® Kit (Ambion A25603) was used to perform expression analysis directly from cultured cells without RNA purification according to the manufacturer's instructions.
Briefly, cells were washed with ice cold PBS and 22.5 μL of room-temperature DNase/Lysis solution was added to the cells and incubated at room temperature for 5 minutes. To stop the reaction, 2.25 μL of stop solution was added to the cell lysate. The samples were diluted 1:5 using nuclease free water and 2.5 μL transferred into the PCR plate. Real-time PCR was performed using the C-1000 Thermal Cycler (Bio-Rad) using human beta actin as the internal control. The cDNA was amplified with a specific primer for NQO1 using the 1-step RT-PCR master mix (Ambion Cells-to-CT™ 1-Step TaqMan® Kit A25603). The primers/probes sets that were used for amplification of cDNA were obtained from TaqMan Gene Expression Assays (Applied Biosystems). The comparative CT (ΔΔCT) relative quantification method was used to calculate the relative mRNA level of the target gene NQO1 as described in the Applied Biosystems Chemistry Guide. The data are expressed as an increase in target gene mRNA compared to vehicle (0.1% DMSO) control and the EC50 values were determined by fitting the data to a four parameter logistic fit using XLfit or XE Runner within ActivityBase.

BRD4 long isoform = molecular target: T1, BRD4 long isoform (Homo sapiens, UniProt O60885); assay: BRD4 degradation assay (Western blot, MDA-MB-468 cells), long isoform; type: cell-based; settings: MDA-MB-468, n = 2
T1 construct: endogenous in cells; host or cells: MDA-MB-468
Protocol: (§1) BRD4 Degradation Assay Protocol Summary
(§2) MDA-MB-468 cells were cultured routinely in DMEM supplemented with 10% heat inactivated FBS and 1% Penicillin-Streptomycin (Thermofisher Scientific) at 37° C. 5% CO2. Cells were seeded in 6-well plates at 4*10^5 cells per well and left to adhere overnight. Example compounds were solubilised in DMSO to make 10 mM stocks followed by serial dilutions in DMSO to 200× final concentration. These were further diluted in culture media to give 20× treatment stocks before addition to cells to a 1× final concentration. Cells were then incubated at 37° C. 5% CO2 for 24 or 48 hours after which cells were lysed in RIPA buffer supplemented with cOmplete Mini Protease Inhibitor Cocktail and PhosSTOP™ (Roche). Lysates were clarified by centrifugation at 13,000 RPM for 10 minutes and the protein concentration of the resulting supernatants determined by BCA assay (ThermoFisher Scientific) as per manufacturer's instructions. Lysates were denatured and reduced in NuPAGE LDS sample buffer and sample reducing agent before 10 μg was loaded onto NuPAGE […] Tris-Acetate Mini Protein Gels (ThermoFisher Scientific). Protein was transferred to nitrocellulose membranes using a Trans-Blot Turbo Transfer System (Bio-Rad) before blocking for 1 hour in Intercept (TBS) Blocking Buffer (Li-Cor). Membranes were then incubated overnight with BRD4 (ab128874; Abcam) and α-tubulin (T6074; Sigma-Aldrich) antibodies diluted 1:2000 and 1:16,000 respectively in Tris-buffered saline 0.05% Tween 20 (TBS-T). The following day, membranes were washed with TBS-T before addition of anti-rabbit IRDye 800 CW and anti-mouse IRDye 680LT secondary antibodies (LiCor) (diluted 1:10,000 in TBS-T) for one hour. Membranes were then washed with TBS-T before imaging using a LICOR Odyssey Infrared Imaging System with Image Studio Ver 5.2 software (LiCor). Densitometry analysis was carried out in the LiCor image studio software where BRD4 signal was normalised to α-tubulin signal. Percentage degradation of BRD4 relative to the DMSO treated negative control was calculated as: =100−(signal of interest/signal of control sample*100). BRD4 degradation by dBET1 was used as positive control for each plate. Data obtained for the percentage degradation of BRD4 upon treatment with the Example compounds 1-6 and Comparative Example compounds 1-3 at 24 hour incubation are shown in Table 2 and with 48 hour incubation are shown in Table 3.

BRD4 short isoform = molecular target: T2, BRD4 short isoform (Homo sapiens, UniProt O60885); assay: BRD4 degradation assay (Western blot, MDA-MB-468 cells), short isoform; type: cell-based; settings: MDA-MB-468, n = 2
T2 construct: endogenous in cells; host or cells: MDA-MB-468
Protocol: as §1, §2

% Mean Degradation of BRD4 (BRD4 long isoform; 24 h, 0.1 μM) | % Mean Degradation of BRD4 (BRD4 long isoform; 24 h, 1 μM) | % Mean Degradation of BRD4 (BRD4 long isoform; 24 h, 5 μM) | % Mean Degradation of BRD4 (BRD4 long isoform; 48 h, 0.1 μM) | % Mean Degradation of BRD4 (BRD4 long isoform; 48 h, 1 μM) | % Mean Degradation of BRD4 (BRD4 long isoform; 48 h, 5 μM) | % Mean Degradation of BRD4 (BRD4 short isoform; 24 h, 0.1 μM) | % Mean Degradation of BRD4 (BRD4 short isoform; 24 h, 1 μM) | % Mean Degradation of BRD4 (BRD4 short isoform; 24 h, 5 μM) | % Mean Degradation of BRD4 (BRD4 short isoform; 48 h, 0.1 μM) | % Mean Degradation of BRD4 (BRD4 short isoform; 48 h, 1 μM) | % Mean Degradation of BRD4 (BRD4 short isoform; 48 h, 5 μM) | SMILES | EC50 [1]
−37% | 26% | 43% | −19% | 56% | 71% | 18% | 65% | 75% | −2% | 65% | 77% | Cc1sc2c(c1C)C(c1ccc(Cl)cc1)=N[C@@H](CC(=O)NCCC(=O)NCCOCc1c(COc3ccc(Cl)c4c3[C@@H](CN3CC5(CC5)CC3=O)N(C(=O)[C@@H]3CCCC[C@]3(C)C(=O)O)CC4)nnn1C)c1nnc(C)n1-2 [Example 4, (1S,2R)-2-((S)-5-Chloro-8-((5-((2-(3-(2-((S)-4-(4-chlorophenyl)-2,3,9-trimethyl-6H-thieno[3,2-f][1,2,4]triazolo[4,3-a][1,4]diazepin-6-yl)acetamido)propanamido)ethoxy)methyl)-1-methyl-1H-1,2,3-triazol-4-yl)methoxy)-1-((6-oxo-5-azaspiro[2.4]heptan-5-yl)methyl)-1,2,3,4-tetrahydroisoguinoline-2-carbonyl)-1-methylcyclohexane-1-carboxylic acid] | 660 nM
1% | 65% | 69% | 34% | 78% | 82% | −5% | 76% | 78% | 40% | 78% | 80% | Cc1sc2c(c1C)C(c1ccc(Cl)cc1)=N[C@@H](CC(=O)NCCOCCC(=O)NCCOCc1c(COc3ccc(Cl)c4c3[C@@H](CN3CC5(CC5)CC3=O)N(C(=O)[C@@H]3CCCC[C@]3(C)C(=O)O)CC4)nnn1C)c1nnc(C)n1-2 [Example 5, (1S,2R)-2-((S)-5-Chloro-8-((5-(14-((S)-4-(4-chlorophenyl)-2,3,9-trimethyl-6H-thieno[3,2-f][1,2,4]triazolo[4,3-a][1,4]diazepin-6-yl)-6,13-dioxo-2,9-dioxa-5,12-diazatetradecyl)-1-methyl-1H-1,2,3-triazol-4-yl)methoxy)-1-((6-oxo-5-azaspiro[2.4]heptan-5-yl)methyl)-1,2,3,4-tetrahydroisoquinoline-2-carbonyl)-1-methylcyclohexane-1-carboxylic acid] | 337 nM
9% | 52% | 95% | −27% | 43% | 82% | 21% | 60% | 95% | 1% | 44% | 81% | Cc1sc2c(c1C)C(c1ccc(Cl)cc1)=N[C@@H](CC(=O)NCC(=O)NCCOCC(=O)N1CC[C@H](Oc3ccc(Cl)c4c3[C@@H](CN3CC5(CC5)CC3=O)N(C(=O)[C@@H]3CCCC[C@]3(C)C(=O)O)CC4)C1)c1nnc(C)n1-2 [Example 6, (1S,2R)-2-((S)-5-Chloro-8-(((S)-1-(2-(2-(2-(2-((S)-4-(4-chlorophenyl)-2,3,9-trimethyl-6H-thieno[3,2-f][1,2,4]triazolo[4,3-a][1,4]diazepin-6-yl)acetamido)acetamido)ethoxy)acetyl)pyrrolidin-3-yl)oxy)-1-((6-oxo-5-azaspiro[2.4]heptan-5-yl)methyl)-1,2,3,4-tetrahydroisoquinoline-2-carbonyl)-1-methylcyclohexane-1-carboxylic acid] | 2490 nM
